What was measured:
[1] = Cytotoxicity against human HOP92 cells assessed as growth inhibition after 48 hrs by SRB assay; type: functional; settings: HOP-92, 48 h; for CC50: read-out: LD50 (the source's name)
[2] = Cytotoxicity against human MDA-MB-231 cells assessed as growth inhibition after 48 hrs by SRB assay; type: functional; settings: MDA-MB-231, 48 h; for CC50: read-out: LD50 (the source's name)
[3] = Cytotoxicity against human DU145 cells assessed as assessed as growth inhibition at 10^-5 M after 48 hrs by SRB assay relative to control; type: functional; settings: DU-145, 48 h, read-out: GI
Mus musculus [4] = organism: Mus musculus; experiment: Genotoxicity in mouse EAC cells at 125 uM after 24 hrs by micronucleus assay (reference value: 3.5 +/- 0.30%); type: toxicity, cell-based; settings: ehrlich
[5] = Cytotoxicity against human OVCAR4 cells assessed as assessed as growth inhibition at 10^-5 M after 48 hrs by SRB assay relative to control; type: functional; settings: OVCAR-4, 48 h, read-out: GI
[6] = Cytotoxicity against human NCI-H23 cells assessed as assessed as growth inhibition at 10^-5 M after 48 hrs by SRB assay relative to control; type: functional; settings: NCI-H23, 48 h, read-out: GI
Mus musculus [7] = organism: Mus musculus; experiment: Genotoxicity in mouse EAC cells at 375 uM after 24 hrs by micronucleus assay (reference value: 3.5 +/- 0.30%); type: toxicity, cell-based; settings: ehrlich
[8] = Cytotoxicity against human M14 cells assessed as growth inhibition after 48 hrs by SRB assay; type: functional; settings: M14, 48 h; for CC50: read-out: LD50 (the source's name)
[9] = Cytotoxicity against human SW1222 cells assessed as assessed as growth inhibition at 10^-5 M after 48 hrs by SRB assay relative to control; type: functional; settings: SW1222, 48 h, read-out: GI
[10] = Cytotoxicity against human UO31 cells assessed as growth inhibition after 48 hrs by SRB assay; type: functional; settings: UO-31, 48 h; for CC50: read-out: LD50 (the source's name)
[11] = Induction of apoptosis in mouse EAC cells at 375 uM after 24 hrs by acridine orange dye-based fluorescence microscopy (reference value: 0.66 +/- 0.33%); type: cell-based; settings: ehrlich
[12] = Cytotoxicity against human IGROV1 cells assessed as growth inhibition after 48 hrs by SRB assay; type: functional; settings: IGROV-1, 48 h; for CC50: read-out: LD50 (the source's name)
[13] = Cytotoxicity against human TK10 cells assessed as growth inhibition after 48 hrs by SRB assay; type: functional; settings: TK-10, 48 h; for CC50: read-out: LD50 (the source's name)
[14] = Induction of apoptosis in mouse EAC cells at 250 uM after 24 hrs by acridine orange dye-based fluorescence microscopy (reference value: 0.66 +/- 0.33%); type: cell-based; settings: ehrlich
[15] = Cytotoxicity against human TK10 cells assessed as assessed as growth inhibition at 10^-5 M after 48 hrs by SRB assay relative to control; type: functional; settings: TK-10, 48 h, read-out: GI
[16] = Cytotoxicity against human MALME-3M cells assessed as growth inhibition after 48 hrs by SRB assay; type: functional; settings: for CC50: read-out: LD50 (the source's name)
[17] = Cytotoxicity against human COLO205 cells assessed as assessed as growth inhibition at 10^-5 M after 48 hrs by SRB assay relative to control; type: functional; settings: COLO 205, 48 h, read-out: GI

| Structure (SMILES) | GI50 [1] [µM] | TGI [1] [µM] | CC50 [1] [µM] | GI50 [2] [µM] | TGI [2] [µM] | CC50 [2] [µM] | inhibition of growth at 10 µM [3] [%] | Activity (Mus musculus [4]) [%] | inhibition of growth at 10 µM [5] [%] | inhibition of growth at 10 µM [6] [%] | Activity (Mus musculus [7]) [%] | GI50 [8] [µM] | TGI [8] [µM] | CC50 [8] [µM] | inhibition of growth at 10 µM [9] [%] | GI50 [10] [µM] | TGI [10] [µM] | Activity [11] [%] | Activity [14] [%] | inhibition of growth at 10 µM [15] [%] | also measured |
| --- | --- | --- | --- | --- | --- | --- | --- | --- | --- | --- | --- | --- | --- | --- | --- | --- | --- | --- | --- | --- | --- |
| O=C1Cc2cc(CCn3cncn3)c(Cl)cc2N1 | 3.02 | > 1 | > 1 | 4.66 | > 1 | > 1 | 3.54 | 3.27 | 13.2 | 75.9 | 4.13 | 3.96 | > 1 | > 1 | 45.8 | 1 | > 1 | 0.9 | 0.63 | -21.7 | CC50 [10]: > 1 µM; GI50 [12]: 1 µM; TGI [12]: > 1 µM; CC50 [12]: > 1 µM; GI50 [13]: 1 µM; TGI [13]: > 1 µM; CC50 [13]: > 1 µM; GI50 [16]: 1 µM; TGI [16]: > 1 µM; CC50 [16]: > 1 µM |
| O=C1Cc2cc(CCn3ccnc3)c(Cl)cc2N1 | 3.54 | 9.15 | > 1 | 5.18 | > 1 | > 1 | 31 | 2.76 | 2.81 | 73.3 | 3.43 | 3.46 | 3.98 | > 1 |  | 5.85 | > 1 | 0.66 | 0.5 | -23.4 | CC50 [10]: > 1 µM; GI50 [12]: 1 µM; TGI [12]: > 1 µM; CC50 [12]: > 1 µM; GI50 [13]: 1 µM; TGI [13]: > 1 µM; CC50 [13]: > 1 µM; inhibition of growth at 10 µM [17]: 29.9%; GI50 [16]: 7.95 µM; TGI [16]: > 1 µM; CC50 [16]: > 1 µM |
| O=C1Cc2cc(CCN3CCNCC3)c(Cl)cc2N1 |  |  |  | 3.9 | > 1 | > 1 |  | 3.36 | 19 | 77.2 | 6.33 | 3.02 | 2.65 | > 1 | 59.2 |  |  | 1.33 | 1.06 | 10.9 | inhibition of growth at 10 µM [17]: 40.1% |

— ChEMBL document CHEMBL3856212, “Synthesis, anti-proliferative and genotoxicity studies of 6-chloro-5-(2-substituted-ethyl)-1,3-dihydro-2H-indol-2-ones and 6-chloro-5-(2-chloroethyl)-3-(alkyl/ary-2-ylidene)indolin-2-ones” (Eur J Med Chem, 2016)
